Earlier results as cited in Sander's compilation of Henry's law constants.
Values joined by “and” are separate entries in the source; they are usually repeats but may differ in a detail not shown here. Equal values may be shown once. Each block holds one compound with its values, some of them ahead of it.

Experiment: Henry solubility constant Hcp at 298.15 K (mol/(m3 Pa))
Conditions: cited value
[1] = reference: Burkholder et al. (2015)
[2] = reference: Burkholder et al. (2019)
[3] = reference: Sander et al. (2006)
[4] = reference: Sander et al. (2011)
[5] = reference: Barcelo and Hennion (1997)
[6] = reference: Schwartz and White (1981)
[7] = reference: Fogg and Sangster (2003)
[8] = reference: Petrasek et al. (1983)

SMILES: C=C [ethene]
Henry solubility constant Hcp [1]: 5.9e-05
Henry solubility constant Hcp [2]: 5.9e-05
Henry solubility constant Hcp (reference: Deno and Berkheimer (1960)): 4.7e-05
Henry solubility constant Hcp (reference: Hayduk (1994)): 4.7e-05
Henry solubility constant Hcp [3]: 5.9e-05
Henry solubility constant Hcp [4]: 5.9e-05

SMILES: Cc1[nH]c(=O)n(C(C)(C)C)c(=O)c1Cl [terbacil]
Henry solubility constant Hcp [5]: 550

SMILES: ClCCOCCCl [1,5-dichloro-3-oxapentane]
Henry solubility constant Hcp (reference: Brockbank (2013)): 0.48
Henry solubility constant Hcp (reference: Goldstein (1982)): 0.46 and 0.47
Henry solubility constant Hcp (reference: Harrison et al. (1993)): 0.37

Henry solubility constant Hcp (reference: Brockbank (2013)): 0.0002
SMILES: C1=CCCC1 [cyclopentene]

SMILES: CCBr [bromoethane]
Henry solubility constant Hcp (reference: Brockbank (2013)): 0.0013
Henry solubility constant Hcp [2]: 0.0013

Henry solubility constant Hcp (reference: Brockbank (2013)): 0.012
SMILES: CCCCC(C=O)CC (centres undefined) [2-ethylhexanal]

SMILES: ClC(Cl)(Cl)C(Cl)(Cl)Cl [hexachloroethane]
Henry solubility constant Hcp (reference: Brockbank (2013)): 0.0028
Henry solubility constant Hcp [1]: 0.0026
Henry solubility constant Hcp [2]: 0.0027
Henry solubility constant Hcp (reference: Goldstein (1982)): 0.001

SMILES: CNC(=O)ON=C(SC)C(=O)N(C)C [oxamyl]
Henry solubility constant Hcp [5]: 38

SMILES: [N]=O [nitrogen monoxide]
Henry solubility constant Hcp (reference: Loomis (1928)): 1.9e-05
Henry solubility constant Hcp [3]: 1.9e-05
Henry solubility constant Hcp [4]: 1.9e-05
Henry solubility constant Hcp [6]: 1.9e-05
Henry solubility constant Hcp (reference: Young (1981b)): 1.9e-05

Henry solubility constant Hcp (reference: Brockbank (2013)): 0.98
SMILES: Cc1ccccn1 [2-methylpyridine]

SMILES: ClC=C(Cl)Cl [trichloroethene]
Henry solubility constant Hcp (reference: Brockbank (2013)): 0.001
Henry solubility constant Hcp [1]: 0.0011
Henry solubility constant Hcp [2]: 0.0011
Henry solubility constant Hcp [7]: 0.001
Henry solubility constant Hcp (reference: Goldstein (1982)): 0.00088

Henry solubility constant Hcp (reference: Brockbank (2013)): 0.02
SMILES: CCCCCCOC(C)=O [hexyl ethanoate]

SMILES: FC(F)(F)F [tetrafluoromethane]
Henry solubility constant Hcp [1]: 2.1e-06
Henry solubility constant Hcp [2]: 2.1e-06
Henry solubility constant Hcp [4]: 2.1e-06

SMILES: O=C(F)Cl [carbonic chloride fluoride]
Henry solubility constant Hcp (reference: George et al. (1993)): 0.099

SMILES: CCCC=O [butanal]
Henry solubility constant Hcp (reference: Brockbank (2013)): 0.091
Henry solubility constant Hcp [1]: 0.095
Henry solubility constant Hcp [2]: 0.095
Henry solubility constant Hcp [3]: 0.095
Henry solubility constant Hcp [4]: 0.095

Henry solubility constant Hcp (reference: Brockbank (2013)): 0.00085
SMILES: CC(C)I [2-iodopropane]

Henry solubility constant Hcp (reference: Clever (1979b)): 2.5e-05
SMILES: [Kr] [krypton]

Henry solubility constant Hcp (reference: Brockbank (2013)): 0.00018
SMILES: C#CCCCCC [1-heptyne]

SMILES: OCC(F)(F)F [2,2,2-trifluoroethanol]
Henry solubility constant Hcp [1]: 0.47
Henry solubility constant Hcp [2]: 0.47
Henry solubility constant Hcp [4]: 0.47

Henry solubility constant Hcp (reference: Brockbank (2013)): 8.6e-06
SMILES: C=CCCCCCCCC [1-decene]

SMILES: COC(=O)Nc1cccc(OC(=O)Nc2cccc(C)c2)c1 [phenmedipham]
Henry solubility constant Hcp [5]: 120000

SMILES: CCOP(=S)(OCC)SCSP(=S)(OCC)OCC [ethion]
Henry solubility constant Hcp [5]: 0.31

Henry solubility constant Hcp (reference: Brockbank (2013)): 5.6e-06
SMILES: CCC(C)(C)CC [3,3-dimethylpentane]

Henry solubility constant Hcp (reference: Brockbank (2013)): 0.017
SMILES: CCCCCOC=O [pentyl methanoate]

Henry solubility constant Hcp (reference: Brockbank (2013)): 2.2e-06
SMILES: C=CCCCCCCCCCCCCC [1-pentadecene]

SMILES: CC(C)=O [propanone]
Henry solubility constant Hcp (reference: Brockbank (2013)): 0.29
Henry solubility constant Hcp [1]: 0.27
Henry solubility constant Hcp [2]: 0.27
Henry solubility constant Hcp (reference: Butler and Ramchandani (1935)): 0.3
Henry solubility constant Hcp (reference: Cabani et al. (1981)): 0.27
Henry solubility constant Hcp [7]: 0.26
Henry solubility constant Hcp (reference: Gaffney and Senum (1984)): 0.3
Henry solubility constant Hcp (reference: Hine and Weimar (1965)): 0.031
Henry solubility constant Hcp (reference: Poulain et al. (2010)): 0.33
Henry solubility constant Hcp [3]: 0.28
Henry solubility constant Hcp [4]: 0.27
Henry solubility constant Hcp (reference: Schaffer and Daubert (1969)): 0.22

SMILES: CCOC(=O)COc1cc(-c2nn(C)c(OC(F)F)c2Cl)c(F)cc1Cl [pyraflufen-ethyl]
Henry solubility constant Hcp (reference: MacBean (2012b)): 12000

SMILES: Cc1cc2ccccc2cc1C [2,3-dimethylnaphthalene]
Henry solubility constant Hcp (reference: Meylan and Howard (1991)): 0.011

SMILES: CF [fluoromethane]
Henry solubility constant Hcp (reference: Brockbank (2013)): 0.00062
Henry solubility constant Hcp [1]: 0.00061
Henry solubility constant Hcp [2]: 0.00061
Henry solubility constant Hcp [3]: 0.00061
Henry solubility constant Hcp [4]: 0.00061

SMILES: Brc1ccc(Br)cc1 [1,4-dibromobenzene]
Henry solubility constant Hcp (reference: Kuramochi et al. (2004)): 0.011

SMILES: CCOP(=S)(NC(C)C)Oc1ccccc1C(=O)OC(C)C (centres undefined) [isofenphos]
Henry solubility constant Hcp [5]: 1000
Henry solubility constant Hcp (reference: MacBean (2012b)): 240

Henry solubility constant Hcp (reference: Brockbank (2013)): 0.00057
SMILES: CC(C)Cl [2-chloropropane]

SMILES: CC1(C(=O)Nc2ccc(O)c(Cl)c2Cl)CCCCC1 [fenhexamid]
Henry solubility constant Hcp (reference: MacBean (2012b)): 200000

SMILES: CC(=O)O[O] [peroxyacetyl radical]
Henry solubility constant Hcp [1]: < 0.00099
Henry solubility constant Hcp [2]: < 0.00099
Henry solubility constant Hcp [3]: < 0.00099
Henry solubility constant Hcp [4]: < 0.00099

SMILES: Nc1ccccc1 [aminobenzene]
Henry solubility constant Hcp (reference: Brockbank (2013)): 4.9

SMILES: ClCCOCOCCCl [bis-(2-chloroethoxy)-methane]
Henry solubility constant Hcp (reference: Goldstein (1982)): 8.8 and 26

Henry solubility constant Hcp (reference: Mackay et al. (1992b)): 0.025
SMILES: C(=C\c1ccccc1)/c1ccccc1 [(E)-stilbene]

Henry solubility constant Hcp (reference: Brockbank (2013)): 0.0063
SMILES: CCCCCCCCCC=O [decanal]

SMILES: CCSCC [diethyl sulfide]
Henry solubility constant Hcp [1]: 0.0035
Henry solubility constant Hcp [2]: 0.0035

Henry solubility constant Hcp (reference: Brockbank (2013)): 0.026
SMILES: COC(=O)C(C)C [methyl 2-methylpropanoate]

Henry solubility constant Hcp (reference: Brockbank (2013)): 0.14
SMILES: CCCCCCCCCCCO [1-undecanol]

Henry solubility constant Hcp (reference: Howard and Meylan (1997)): 0.0077
SMILES: CCCOCC [ethyl propyl ether]

Henry solubility constant Hcp (reference: Brockbank (2013)): 0.35
SMILES: N#Cc1ccccc1 [benzenenitrile]

SMILES: [O]N=O [nitrogen dioxide]
Henry solubility constant Hcp [1]: 0.00012
Henry solubility constant Hcp [2]: 0.00012
Henry solubility constant Hcp [3]: 0.00014
Henry solubility constant Hcp [4]: 0.00012
Henry solubility constant Hcp [6]: 0.00012

SMILES: FN(F)N(F)F [dinitrogen tetrafluoride]
Henry solubility constant Hcp [1]: 8.4e-06
Henry solubility constant Hcp [2]: 8.4e-06
Henry solubility constant Hcp [4]: 8.4e-06

Henry solubility constant Hcp (reference: Brockbank (2013)): 0.0076
SMILES: CCCCOCC [1-ethoxy-butane]

Henry solubility constant Hcp (reference: Brockbank (2013)): 2.8e-05
SMILES: CC1CCCC1 [methylcyclopentane]

SMILES: CC(C)(C)C(O)(CCc1ccc(Cl)cc1)Cn1cncn1 (centres undefined) [tebuconazole]
Henry solubility constant Hcp [5]: 1100

SMILES: OCCCCO [1,4-butanediol]
Henry solubility constant Hcp [1]: 35000
Henry solubility constant Hcp [2]: 35000

SMILES: OBr [hypobromous acid]
Henry solubility constant Hcp [1]: > 13
Henry solubility constant Hcp [2]: > 13

SMILES: c1ccc2c(c1)-c1cccc3cccc-2c13 [benzo[jk]fluorene]
Henry solubility constant Hcp (reference: Brockbank (2013)): 0.7
Henry solubility constant Hcp [7]: 0.54
Henry solubility constant Hcp [8]: 0.99

SMILES: Clc1ccccc1 [chlorobenzene]
Henry solubility constant Hcp (reference: Brockbank (2013)): 0.0026
Henry solubility constant Hcp (reference: Goldstein (1982)): 0.0025

SMILES: [Hg+2].[OH-].[OH-] [mercury dihydroxide]
Henry solubility constant Hcp (reference: Lindqvist and Rodhe (1985)): 130
Henry solubility constant Hcp (reference: WHO (1990)): 130

Henry solubility constant Hcp (reference: Brockbank (2013)): 0.33
SMILES: CCCCCC(C)O (centres undefined) [2-heptanol]

SMILES: COP(=O)(NC(C)=O)SC (centres undefined) [acephate]
Henry solubility constant Hcp [5]: 190000

SMILES: Nc1ccc([N+](=O)[O-])cc1 [4-nitrobenzenamine]
Henry solubility constant Hcp (reference: Brockbank (2013)): 8700

SMILES: Nc1ccc(Cl)cc1 [1-amino-4-chlorobenzene]
Henry solubility constant Hcp (reference: Howard (1989)): 0.92

Henry solubility constant Hcp (reference: Brockbank (2013)): 7.2e-06
SMILES: CCCCC [pentane]

Henry solubility constant Hcp (reference: Brockbank (2013)): 2.4e-05
SMILES: C/C=C/CCCC [trans-2-heptene]

SMILES: CC(C)Nc1nc(Cl)nc(NC(C)C)n1 [propazine]
Henry solubility constant Hcp [5]: 99

Henry solubility constant Hcp (reference: Brockbank (2013)): 0.0036
Henry solubility constant Hcp [7]: 0.0038
Henry solubility constant Hcp (reference: Goldstein (1982)): 0.0038
SMILES: C=Cc1ccccc1 [ethenylbenzene]

Henry solubility constant Hcp (reference: Brockbank (2013)): 0.81
SMILES: CCNc1ccccc1 [(ethylamino)-benzene]

SMILES: OCC(Cl)Cl [2,2-dichloroethanol]
Henry solubility constant Hcp [1]: 0.37
Henry solubility constant Hcp [2]: 0.37

Henry solubility constant Hcp (reference: Brockbank (2013)): 6.7
SMILES: Cc1cccc(O)c1C [1-hydroxy-2,3-dimethylbenzene]

Henry solubility constant Hcp (reference: Brockbank (2013)): 0.0009
SMILES: CC(C)c1ccccc1 [(2-propyl)-benzene]

SMILES: OCC(F)F [2,2-difluoroethanol]
Henry solubility constant Hcp [1]: 0.93
Henry solubility constant Hcp [2]: 0.93

SMILES: CC(=O)CC(C)C [4-methyl-2-pentanone]
Henry solubility constant Hcp (reference: Brockbank (2013)): 0.069
Henry solubility constant Hcp (reference: Howard (1990)): 0.11

Henry solubility constant Hcp (reference: Brockbank (2013)): 0.2
SMILES: CCCCCCCCCCO [1-decanol]

SMILES: CCCC1COC(Cn2cncn2)(c2ccc(Cl)cc2Cl)O1 (centres undefined) [propiconazole]
Henry solubility constant Hcp [5]: 24

Henry solubility constant Hcp (reference: Brockbank (2013)): 15
Henry solubility constant Hcp [8]: 6.6
SMILES: c1ccc2c(c1)ccc1c3ccccc3ccc21 [chrysene]

SMILES: ClC1C(Cl)C(Cl)C(Cl)C(Cl)C1Cl (stereo not drawn) [α-1,2,3,4,5,6-hexachlorocyclohexane]
Henry solubility constant Hcp (reference: Xiao et al. (2004)): 1.5 and 1.4

Henry solubility constant Hcp (reference: Brockbank (2013)): 0.27
SMILES: CCCCCCC(C)O (centres undefined) [2-octanol]

SMILES: CCCBr [1-bromopropane]
Henry solubility constant Hcp (reference: Brockbank (2013)): 0.0011

Henry solubility constant Hcp (reference: Brockbank (2013)): 0.079
SMILES: CCCC(=O)CC [3-hexanone]

SMILES: O=C(Nc1ccccc1)Nc1ccnc(Cl)c1 [forchlorfenuron]
Henry solubility constant Hcp (reference: MacBean (2012b)): 3.5e+06

SMILES: CCOP(=O)(SC(C)CC)N1CCSC1=O (centres undefined) [fosthiazate-1]
Henry solubility constant Hcp (reference: MacBean (2012b)): 75

Henry solubility constant Hcp (reference: MacBean (2012b)): 47
SMILES: Cc1c(Br)c2ccc(F)cc2n1S(=O)(=O)c1ncn(S(=O)(=O)N(C)C)n1 [amisulbrom]

SMILES: Nc1ccc(-c2ccc(N)c(Cl)c2)cc1Cl [3,3'-dichloro-(1,1'-biphenyl)-4,4'-diamine]
Henry solubility constant Hcp (reference: Mackay et al. (1995)): 12

SMILES: [CH3][Hg][Cl] [chloromethylmercury]
Henry solubility constant Hcp (reference: WHO (1990)): 20
